Assay results from publication PMC6348446 (Journal of Medicinal Chemistry, 2018).

How the values were obtained:
Plasma stability, human = type: in vitro ADME; details: 10 µM compound, 37 °C; for half-life at 10 µM: human, plasma, pH 7.4, read-out: Plasma stability T 1/2, Human
Experimental: Test compound (10 µM) was incubated in pre-warmed plasma at 37 ᵒC (that is buffered to pH 7.4 in ratio of 70:30 plasma to buffer). Immediately, at time zero, then at 30, 60, 120, and 180 min, a 50 µL aliquot of the incubation mixture was removed and mixed with 200 µL acetonitrile containing Donepezil as the internal standard (50 ng/ml) to stop the reaction. The samples were centrifuged to sediment the precipitated protein and the plates then sealed prior to UPLC-MS/MS analysis using a Xevo TQ-S Micro (Waters Corporation, USA).
XLfit (IDBS, UK) was used to calculate the exponential decay and consequently the rate constant (k) from the ratio of peak area of test compound to internal standard at each time point. The half-life was calculated for each test compound from the rate by using the […]
Parallel Artificial Membrane Permeability Assay (PAMPA)
PAMPA was performed using a 96-well pre-coated BD Gentest™ PAMPA plate (BD Biosciences, U.K.). Each well was divided into two chambers; donor and acceptor, separated by a lipid-oil-lipid tri-layer constructed in a porous filter. The effective permeability, Pe, of the compound was measured at pH 7.4. Stock solutions (5 mM) of the compound were prepared in DMSO. The compound was then further diluted to 10 µM in phosphate buffered […]
saline at pH 7.4. […] The compound […]
dissolved in phosphate buffered saline was then added to the donor side of the membrane and phosphate buffered saline without compound was added to the acceptor side. The PAMPA plate was left at room temperature for 5 h. After which time, an aliquot (100 µL) was then

BRD9 = target: T1, BRD9 (Homo sapiens, UniProt Q9H8M2); assay: Western blot of BRD9 levels in RI-1 cells after compound treatment; type: cell-based; details: for BRD9 degradation: 4 h
T1 construct: Western blot analysis of BRD9 and BRD7 levels after treatment of HeLa cells; endogenous in cells; host or cells: HeLa
T1 sequence (Q9H8M2 1-597): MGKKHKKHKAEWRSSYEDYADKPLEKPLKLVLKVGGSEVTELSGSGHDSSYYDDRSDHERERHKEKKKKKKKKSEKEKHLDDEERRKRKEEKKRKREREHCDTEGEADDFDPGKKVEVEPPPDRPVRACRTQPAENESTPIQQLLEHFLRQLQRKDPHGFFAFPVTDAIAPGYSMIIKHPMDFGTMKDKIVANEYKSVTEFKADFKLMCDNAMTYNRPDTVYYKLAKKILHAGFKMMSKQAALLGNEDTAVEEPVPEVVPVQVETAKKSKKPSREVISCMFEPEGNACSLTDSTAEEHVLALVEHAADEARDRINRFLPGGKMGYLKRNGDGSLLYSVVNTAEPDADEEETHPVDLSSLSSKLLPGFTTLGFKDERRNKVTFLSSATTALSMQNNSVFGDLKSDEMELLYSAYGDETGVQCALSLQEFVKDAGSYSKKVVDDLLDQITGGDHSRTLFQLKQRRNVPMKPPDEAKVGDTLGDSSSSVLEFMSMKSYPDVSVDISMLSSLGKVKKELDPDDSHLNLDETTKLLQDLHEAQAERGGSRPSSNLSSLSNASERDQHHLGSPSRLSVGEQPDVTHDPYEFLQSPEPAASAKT

[1] = Intrinsic clearance in mouse liver microsomes; type: in vitro ADME; details: 0.5 µM compound
Experimental: (§1) compounds against known CHI values. The CHI value of test compounds was then calculated according to their retention time.
(§2) Test compounds were prepared as 0.25 mM solutions in 50:50 acetonitrile:water and analysed by reversed-phase HPLC-UV (wavelength 254 nm) using a ACE Excel 3 SuperC18, 3 µm, 50 x 2.1 mm column with a gradient of aqueous phase (10 mM ammonium acetate, pH 7.4) and mobile phase (acetonitrile).
(§3) Intrinsic clearance (Cli) experiments
(§4) Test compound (0.5 µM) was incubated with female CD1 mouse or human (mixed gender) liver microsomes (Xenotech LLCTM; 0.5 mg/mL 50mM potassium phosphate buffer, pH7.4) and the reaction initiated with addition of excess NADPH (8 mg/mL 50 mM potassium phosphate buffer, pH7.4). Immediately, at time zero, then at 3, 6, 9, 15 and 30 minutes an aliquot (50 µL) of the incubation mixture was removed and mixed with acetonitrile (100 µL) to stop the reaction. Internal standard was added to all samples, the samples centrifuged to sediment precipitated protein and the plates then sealed prior to […] analysis using […]
(§5) a Xevo TQ-S Micro (Waters corporation, USA).
(§6) XLfit (IDBS, UK) was used to calculate the exponential decay and consequently the rate constant (k) from the ratio of peak area of test compound to internal standard at each timepoint. The rate of intrinsic clearance (CLi) of each test compound was then calculated using the following calculation: […]

[2] = Intrinsic clearance in human liver microsomes; type: in vitro ADME; details: 0.5 µM compound
Experimental: as §1, §2, §3, §4, §5, §6

A-204 cells = assay: Cell viability/proliferation (cellular ATP, CellTiterGlo) in A-204; type: cell-based; details: Homo sapiens, A204; A-204 (printed A-402); read-out: EC50 (cytotoxicity, cell viability)
Experimental: A-204 cells (1 × 10^3) were seeded per well of 384-well plates. After overnight incubation, compounds were added to the cells at logarithmic dose series using the HP digital dispenser D300 (Tecan), normalizing for added DMSO. 1 day and 8 days after seeding cellular ATP content was measured using CellTiterGlo (Promega). Measurements after 8 days were divided by the measurement after 1 day (i.e., the T0 plate) to derive fold proliferation. Data were analyzed with GraphPad Prism software to obtain EC50 values.

EOL-1 cells = assay: Cell viability/proliferation (cellular ATP, CellTiterGlo) in EOL-1; type: cell-based; details: Homo sapiens, EOL1; EOL-1, text; read-out: EC50 (cytotoxicity, cell viability)

| Compound | half-life at 10 µM (Plasma stability, human) | BRD9 degradation (BRD9; RI-1 cells, 100 nM) | Microsomal stability (intrinsic clearance), Mouse [1] | Microsomal stability (intrinsic clearance), Human [2] | EC50 (A-204 cells) | Plasma stability T 1/2, Human (Plasma stability, human) | remaining activity at 1 µM (BRD9; 2 h, Table 3, % of total protein remaining relative to 0.1% DMSO vehicle, 1 μM compound, RI-1) | decrease of BRD9 level (BRD9; RI-1 cells, 100 nM, 30 min) | concentration window of maximal protein degradation of BRD9 (BRD9; RI-1 cells, 2 and 8 h) | EC50 (EOL-1 cells) |
| --- | --- | --- | --- | --- | --- | --- | --- | --- | --- | --- |
| COc1cc(-c2cn(C)c(=O)c3cnccc23)cc(OC)c1CN1CCN(CCCCCOc2cc(-c3scnc3C)ccc2CNC(=O)[C@@H]2C[C@H](O)CN2C(=O)[C@@H](NC(=O)C2(F)CC2)C(C)(C)C)CC1 [cisVZ185] | > 180 min | no degradation | 2.4 mL/min/g liver | 8.1 mL/min/g liver |  |  |  |  |  |  |
| COc1cc(-c2cn(C)c(=O)c3cnccc23)cc(OC)c1CN1CCN(CCCCCOc2cc(-c3scnc3C)ccc2CNC(=O)[C@@H]2C[C@@H](O)CN2C(=O)[C@@H](NC(=O)C2(F)CC2)C(C)(C)C)CC1 [Compound 51, (2S,4R)-N-(2-((5-(4-(2,6-Dimethoxy-4-(2-methyl-1-oxo-1,2-dihydro-2,7-naphthyridin-4-yl)benzyl)piperazin-1-yl)pentyl)oxy)-4-(4-methylthiazol-5-yl)benzyl)-1-((S)-2-(1-fluorocyclopropane-1-carboxamido)-3,3-dimethylbutanoyl)-4-hydroxypyrrolidine-2-carboxamide] | > 180 min | more than 90% |  |  | 40 nM | high stabilities | 100% | more than 50% | 10 to 100 nM | 3 nM |
